Assay results: patent publication US20160106439A1, “PNEUMATIC TOURNIQUET” (BIONUMERIK PHARMACEUTICALS, INC., priority 2013, published 2016)
Entries after “also recorded” stand apart in the source; their conditions may differ. Like-named read-outs stand apart in the source and are kept apart here.

Experiments:
WT EGFR kinase = WT EGFR kinase (Homo sapiens, UniProt P00533); experiment: WT EGFR kinase assay (ADP-glo); conditions: for more inhibition of WT EGFR relative to 4 nM Erlotinib alone: 10 μM ATP; for increased inhibition of WT EGFR relative to 20 nM Erlotinib alone: 100 μM ATP
Recombinant human Trx [1] = molecular target: T1, Recombinant human Trx (Homo sapiens, UniProt P10599); type: biochemical; parameters: 6xHis (N); purchased Sigma (Trx); American Diagnostica (bovine TrxR); conditions: over MSSH and MSSCE
T1 sequence (P10599 1-105): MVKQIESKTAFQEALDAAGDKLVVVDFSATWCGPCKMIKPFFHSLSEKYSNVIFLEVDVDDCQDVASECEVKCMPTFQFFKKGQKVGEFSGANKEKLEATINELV
Description: See, Luthman M and Holmgren A. Rat liver thioredoxin and thioredoxin reductase: purification and characterization. […] All disulfides were added to reactions as 10x solutions in buffer. The total volume of each reaction was 0.1 mL. Reactions were initiated by the addition of TrxR and were incubated at 25° C. for 40 minutes. Reactions were analyzed using a Molecular Devices SpectraMax Plus UV/vis plate reader and the activity was calculated using a 4 minute linear portion of each assay.

TrxR/Trx system = molecular target: T2, TrxR/Trx system (Homo sapiens, UniProt P10599); experiment: NADPH oxidation by TrxR and Trx; type: biochemical; conditions: increasing concentrations of the substance
T2 construct: 6xHis (N); purchased Sigma (Trx); American Diagnostica (bovine TrxR)
T2 sequence (P10599 1-105): T1 sequence (P10599 1-105)

[2] = read-out: Cmax for mesna; 41 g/m^2 Tavocept; cited from earlier work
Recombinant human Trx [3] = molecular target: T1, Recombinant human Trx; experiment: LC MS of Trypsin digested Trx after incubation with Tavocept, mesna or glutathione; type: binding; parameters: purchased Sigma (SigmaAldrich); host or cells: E. coli; conditions: fragment CMPTFQFFK (cys73); 10 mM, 4 to 6 hours
some cell lines = experiment: Mesna cytotoxicity in vitro (unpublished data)
thioredoxin = molecular target: T3, thioredoxin (Homo sapiens, UniProt P10599); experiment: LC-MS of thioredoxin incubations; type: binding; conditions: ion at m/z 1288.3
T3 construct: purchased Sigma (SigmaAldrich); host or cells: E. coli

[4] = test system: bovine brain microtubule protein (α-/β-tubulin); experiment: Microtubule protein polymerization assay (OD350) and electron microscopy; type: biochemical; conditions: for effect on GTP-catalyzed microtubule protein polymerization: preincubated with microtubule protein on ice 20 minutes, 37° C.
[5] = test system: non-small cell lung cancer; conditions: patients >=65 years treated with carboplatin and paclitaxel; cited from earlier work
[6] = single oral dose of 100 mg, healthy volunteers; cited from earlier work
[7] = molecular target: T4, TrxR/Trx insulin disulfide reduction (Homo sapiens, UniProt P10599); experiment: TrxR/Trx insulin disulfide reduction assay with isolated Trx species; type: biochemical; conditions: free Tavocept or glutathione disulfide removed
T4 construct: purchased Sigma; host or cells: E. coli (said of the Sigma Trx)
T4 sequence (P10599 1-105): T1 sequence (P10599 1-105)

Sequence of WT EGFR kinase (P00533 25-1210): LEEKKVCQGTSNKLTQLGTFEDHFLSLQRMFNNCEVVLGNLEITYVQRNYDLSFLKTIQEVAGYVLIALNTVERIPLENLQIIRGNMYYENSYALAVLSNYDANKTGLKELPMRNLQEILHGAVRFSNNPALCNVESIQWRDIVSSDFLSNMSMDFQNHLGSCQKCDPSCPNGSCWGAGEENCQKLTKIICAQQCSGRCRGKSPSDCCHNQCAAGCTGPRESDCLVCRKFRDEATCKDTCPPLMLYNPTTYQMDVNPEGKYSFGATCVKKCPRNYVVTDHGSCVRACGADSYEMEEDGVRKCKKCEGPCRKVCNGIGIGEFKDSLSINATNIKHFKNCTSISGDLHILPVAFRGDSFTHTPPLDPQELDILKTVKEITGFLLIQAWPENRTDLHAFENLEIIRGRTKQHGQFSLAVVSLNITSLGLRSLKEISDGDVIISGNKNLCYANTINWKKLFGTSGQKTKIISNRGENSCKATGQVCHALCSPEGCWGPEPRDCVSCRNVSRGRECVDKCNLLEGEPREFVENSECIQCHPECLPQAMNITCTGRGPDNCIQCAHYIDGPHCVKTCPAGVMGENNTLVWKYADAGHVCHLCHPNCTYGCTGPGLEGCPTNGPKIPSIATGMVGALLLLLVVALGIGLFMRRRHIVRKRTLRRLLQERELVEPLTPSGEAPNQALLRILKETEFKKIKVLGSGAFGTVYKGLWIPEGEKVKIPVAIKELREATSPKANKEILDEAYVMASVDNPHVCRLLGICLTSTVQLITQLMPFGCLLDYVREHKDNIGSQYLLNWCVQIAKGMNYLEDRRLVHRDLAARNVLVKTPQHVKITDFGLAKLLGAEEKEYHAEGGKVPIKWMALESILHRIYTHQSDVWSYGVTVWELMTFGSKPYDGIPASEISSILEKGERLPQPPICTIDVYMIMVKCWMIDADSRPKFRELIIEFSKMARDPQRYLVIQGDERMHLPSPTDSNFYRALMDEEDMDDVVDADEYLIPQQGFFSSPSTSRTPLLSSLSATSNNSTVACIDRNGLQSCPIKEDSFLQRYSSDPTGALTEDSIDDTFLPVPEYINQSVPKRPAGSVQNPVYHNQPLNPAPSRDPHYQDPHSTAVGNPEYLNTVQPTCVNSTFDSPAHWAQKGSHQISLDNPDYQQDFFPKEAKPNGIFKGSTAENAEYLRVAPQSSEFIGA

For `NC(CSSCCS(=O)(=O)O)C(=O)O` (stereo not drawn) [MSSC, mesna-cysteine disulfide], the “more inhibition of WT EGFR relative to 4 nM Erlotinib alone” value (WT EGFR kinase; 0.75 mM + 4 nM Erlotinib) was 16%, the “more inhibition of WT EGFR relative to 4 nM Erlotinib alone” value (WT EGFR kinase; 1.5 mM + 4 nM Erlotinib) was 34% and the “more inhibition of WT EGFR relative to 4 nM Erlotinib alone” value (WT EGFR kinase; 2.5 mM + 4 nM Erlotinib) was 54%. For the same molecule, the “increased inhibition of WT EGFR relative to 20 nM Erlotinib alone” value (WT EGFR kinase; 0.2 mM + 20 nM Erlotinib) was 17%, the “increased inhibition of WT EGFR relative to 20 nM Erlotinib alone” value (WT EGFR kinase; 2.5 mM + 20 nM Erlotinib) was 15% and the “Substrate preference of Trx” value (Recombinant human Trx [1]) was “preferred slightly”. The “NADPH oxidation by TrxR and Trx” value (TrxR/Trx system) was “increases”.

In the case of `O=S(=O)([O-])CCS.[Na+]` [mesna, 2-mercapto ethane sulfonate], the Cmax [2] is listed as ~323 µM, the “Mesna-Cysteine Adduct Detected?” value (Recombinant human Trx [3]) is listed as “presence of a mesna adduct on Cys73 of Trx” and the “Concentrations that can be cytotoxic” value (some cell lines) is listed as ≤ 400 µM. The “mesna adduct on thioredoxin fragment CMPTFQFFK” value (thioredoxin) was “Cys73-mesna adduct”, the “effect alone on MTP polymerization or paclitaxel-induced hyperpolymerization” value [4] was “no detectable effect” and the “protection against monoaquocisplatin-induced loss of polymerization” value ([4]; mesna 200 μM preincubated 30 minutes with monoaquocisplatin 36 μM) was “prevented the monoaquocisplatin-induced loss; also recorded: able to protect”. For the same molecule, the “effect on GTP-catalyzed microtubule protein polymerization” value [4] was “did not affect” and the “effect on GTP-catalyzed microtubule protein polymerization” value ([4]; listed as Mesna) was “does not affect”.

For `N[C@@H](CCC(=O)N[C@@H](CSSCCS(=O)(=O)O)C(=O)NCC(=O)O)C(=O)O` [MSSG, mesna-glutathione disulfide], the “Substrate preference of Trx” value (Recombinant human Trx [1]) was “preferred slightly” and the “NADPH oxidation by TrxR and Trx” value (TrxR/Trx system) was “increases”.

For bevacizumab [Avastin], the Survival advantage [5] is listed as “did not confer a survival advantage”.

In the case of `C#Cc1cccc(Nc2ncnc3cc(OCCOC)c(OCCOC)cc23)c1` [Erlotinib], the Cmax [6] is given as 1390 ng/mL.

B1: Trx-mesna: Trx covalently modified by a Tavocept-derived mesna moiety (conjugate, UniProt P10599 2-105, looked up)
Thioredoxin: VKQIESKTAFQEALDAAGDKLVVVDFSATWCGPCKMIKPFFHSLSEKYSNVIFLEVDVDDCQDVASECEVKCMPTFQFFKKGQKVGEFSGANKEKLEATINELV
modifications: mesna-modified
notes: Trx covalently modified by a Tavocept-derived mesna moiety
With B1 the “Effect on initial velocity relative to apo-Trx” value [7] was “clear effect on initial velocity”.

B2: Trx-GSH: Trx modified by glutathione, prepared with glutathione disulfide as control (conjugate, UniProt P10599 2-105, looked up)
Thioredoxin: B1 Thioredoxin
modifications: glutathione-modified
notes: Trx modified by glutathione, prepared with glutathione disulfide as control
For B2, the “Effect on initial velocity relative to apo-Trx” value [7] was “clear effect on initial velocity”.
